Measurements taken from patent US7256180B2 (priority 2000, dated 2007).
Where two headings read alike, the source gives them in different places. {C11P} = undecylphosphate group; {Acr} = acridine group

Tests used:
HSV-1 = assay type: cell-based, Herpes Simplex Virus 1; settings: BHK cells, oligonucleotide 3.0 μM
HSV-1 (strain CI) = assay type: in vivo, mice
HSV-1 virus (strain L2) = assay type: cell-based, Herpes Simplex Virus 1; settings: Vero cells, 24 hours

Substance: Free Anti-HSV: CGTTCCTCCTGU, 5′ undecylphosphate and 3′ acridine modified (5' {C11P}, 3' {Acr}, sugars by position and backbone not given here)
- HSV-1 Infectious Titre (CPE50/ml) (n = 7) (HSV-1): 50 (±14) × 10^2 CPE50/ml
- Animals Survived/No. of Animals in group, Exp. 1 (HSV-1 (strain CI); mouse, in vivo, iv): 1/10
- Animals Survived/No. of Animals in group, Exp. 2 (HSV-1 (strain CI); mouse, in vivo, iv): 1/10
- Animals Survived/No. of Animals in group, Exp. 3 (HSV-1 (strain CI); mouse, in vivo, iv): 0/10
- % Survival (HSV-1 (strain CI); over Exp. 1-3): 7.0%
- HSV-1 Infectious Titre (CPE50/ml) (n = 7) (HSV-1 virus (strain L2); oligo conc. 0.2 μM): 0.9 (±0.4) × 10^5 CPE50/ml
- HSV-1 Infectious Titre (CPE50/ml) (n = 7) (HSV-1 virus (strain L2); oligo conc. 1.0 μM): 2.3 (±0.7) × 10^3 CPE50/ml
- HSV-1 Infectious Titre (CPE50/ml) (n = 7) (HSV-1 virus (strain L2); oligo conc. 5.0 μM): 1.6 (±0.4) × 10^2 CPE50/ml
